In patent publication US12421242B2, “Substituted tetrahydropyrrolo-pyridinone compounds and their use in treating medical conditions” (Karuna Therapeutics, Inc., priority 2022, dated 2025) one finds EC50 data, which are given here for 20 compounds.

The target of one assay is T1, hM4 receptors (Homo sapiens, UniProt P08173).
T1 construct: expressed in transfected cells; host or cells: CHO cells
T1 sequence (P08173 1-479): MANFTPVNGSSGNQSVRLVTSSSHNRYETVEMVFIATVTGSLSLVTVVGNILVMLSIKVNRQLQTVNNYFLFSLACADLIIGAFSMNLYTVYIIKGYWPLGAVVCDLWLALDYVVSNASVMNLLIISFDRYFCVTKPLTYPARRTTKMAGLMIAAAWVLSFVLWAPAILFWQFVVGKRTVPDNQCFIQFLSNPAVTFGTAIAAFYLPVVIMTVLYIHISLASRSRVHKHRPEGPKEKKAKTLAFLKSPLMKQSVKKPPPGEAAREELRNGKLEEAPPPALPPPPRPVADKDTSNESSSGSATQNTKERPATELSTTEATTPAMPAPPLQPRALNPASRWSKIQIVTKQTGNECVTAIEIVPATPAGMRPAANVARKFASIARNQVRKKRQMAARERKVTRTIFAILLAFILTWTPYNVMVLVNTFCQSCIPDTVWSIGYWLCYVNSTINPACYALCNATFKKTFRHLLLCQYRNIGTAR
Description: Human M4 PAM pERK assay. In kind it is cell-based. Particulars: PAM mode. How it is done:
(§1) Chinese hamster ovary (CHO) cells expressing either hM4 or rM4 receptors were frozen in assay ready vials (5×10^6 cells/vial) after bulking-up in culture. The day before an assay, vial(s) were thawed and cells seeded in 384 well white proxiplates at 1000/well for hM4 cells and at 2000/well for rM4 cells, in 10 μL of growth media (Hams/F12 with glutamax and 10% FCS) and incubated overnight at 37° C./5% CO2.
(§2) On the following morning, the growth media was removed by ‘flicking out’ over a bin, patting the inverted plate onto tissue, and then replacing with 10 μL of wash media (Hams/F12 with glutamax and 8 mM HEPES, NB: serum free). Then, the wash media was removed in the same way and replaced with 8 μL/well of the serum free media. Plates were then re-incubated for a further 4 hours at 37° C./5% CO2.
(§3) Compounds for testing were solubilized to 10 mM in DMSO and compound addition plates, consisting of ten-point concentration response curves (CRC) in duplicate points (10 μM top concentration, […]), were prepared by acoustic dispensing and the compound management group.
(§4) After the 4-hour incubation in serum free media, a 4 μL aliquot of the 3× compound solution containing an EC20 of acetylcholine (10 nM final concentration) was added to the cell plate using a 384 well plate to plate transfer. Then, the plate lid was replaced, and the cells incubated for 5 mins at 37° C./5% CO2. Following this final incubation, all cellular processes were stopped by the addition of 4 μL/well of lysis and blocking buffer and plates were incubated for 30 minutes at RT on an orbital shaker (gentle setting). Then, a final addition of 4 μL/well of antibody detection mix, containing both the Europium-Cryptate (donor) and d2 (acceptor) tagged detection components, was added followed by a further 2-hour incubation at RT, and then the plate was read using a TR-FRET (time resolved fluorescence resonance energy transfer) based protocol.

For a further assay, the target named is T2, rM4 receptors (Rattus norvegicus, UniProt P08485).
T2 construct: expressed in transfected cells; host or cells: CHO cells
T2 sequence (P08485 1-478): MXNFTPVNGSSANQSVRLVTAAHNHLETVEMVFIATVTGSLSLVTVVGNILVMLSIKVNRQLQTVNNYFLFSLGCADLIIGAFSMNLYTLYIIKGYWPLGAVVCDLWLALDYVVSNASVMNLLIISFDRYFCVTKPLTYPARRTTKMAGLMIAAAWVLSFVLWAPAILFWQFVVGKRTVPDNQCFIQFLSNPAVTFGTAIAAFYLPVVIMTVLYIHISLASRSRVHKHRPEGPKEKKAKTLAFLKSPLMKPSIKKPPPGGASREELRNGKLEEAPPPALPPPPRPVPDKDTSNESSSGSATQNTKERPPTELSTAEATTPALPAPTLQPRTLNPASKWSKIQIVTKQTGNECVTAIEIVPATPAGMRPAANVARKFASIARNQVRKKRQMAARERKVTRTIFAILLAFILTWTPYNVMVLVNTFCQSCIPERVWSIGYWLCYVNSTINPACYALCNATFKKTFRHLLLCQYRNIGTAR
Nature of the assay: Rat M4 PAM pERK assay. The class given is cell-based. Particulars: PAM mode. How it is done: as §1, §2, §3, §4

The next assay deals with T3, human M4 receptor (Homo sapiens, UniProt P08173).
T3 construct: expressed in transfected cells
T3 sequence (P08173 1-479): T1 sequence (P08173 1-479)
Description: M4 GTPγS PAM assay. The class given is biochemical. Particulars: CHO-K1 membranes expressing human M4, with EC20 acetylcholine (40 nM). How it is done: The M4 GTPγS PAM method was used. Membranes were prepared for GTPgS binding assays from CHO-K1 cells stably expressing human M4 receptor. Briefly, cells were grown in 5-layer cell culture flasks. Cells were washed with 50 mL of PBS and then dissociated with 0.05% trypsin. Dissociated cells were then collected by centrifugation at 650×g for 8 minutes at 4° C. Pellets were washed again in PBS by centrifugation and resuspended in 30 mL of 20 mM HEPES, 10 mM EDTA, pH 7.4. After sitting on ice for 30 min, membranes were collected by centrifugation at 50000×g for 15′ at 4° C., resuspended in 30 mL of 20 mM HEPES, 0.1 mM EDTA, pH 7.4 and collected again by centrifugation. Pellets were then washed twice by centrifugation in 30 mL of 20 mM HEPES, pH 7.4, and stored at −80° C. until the day of the assay. On the day of the assay, pellets were thawed on ice and resuspended in 1 mL of 20 mM HEPES, pH 7.4, 10 mM MgCl2, 100 mM NaCl using dounce homogenization. Membrane protein concentration is determined by BCA protein assay (Promega, Madison, WI) according to Promega guidelines.
On the day of the assay, serial dilutions of test PAM compounds were brought up in assay buffer (20 mM HEPES, 10 mM MgCl2, 100 mM NaCl) at 4× final assay concentration. […] of membrane homogenates (containing […] of membrane protein) were prepared in assay buffer supplemented with GDP at 4× final assay concentration (final assay concentration of GDP is 5 uM for M2 and 0.1 uM for M4) and dispensed into 96 well polypropylene, U-bottom Greiner plates. […] of vehicle or test PAM compound at 4× of final assay concentration diluted in the assay buffer were added to membrane and plates are incubated for 10-15 minutes at room temperature with gentle shaking. Then, […] of EC20 acetylcholine in assay buffer at 4× final assay concentration was added to assay plates (EC20 final assay concentrations was 40 nM for human M4).
Plates were then incubated, with shaking, for an additional 10-15 minutes. 25 mL of 0.4 nM ^35S-GTP (Perkin Elmer, Waltham, MA) in assay buffer was added to assay mixtures. The binding reaction is left on the shaker for 1 hour at room temperature. Membranes in assay reactions were then transferred to GF/C filter plates (Unifilter, Perkin Elmer) and washed three times using a FilterMate Harvester (Perkin Elmer) with cold assay buffer containing no GDP. Filter plates were then dried at 40° C. overnight followed by the addition of […] of Beta Plate Scintillation liquid. Plates are top and bottom sealed before being read on TopCount scintillation counter (Perkin Elmer, Waltham, MA).

For orientation: EC50 means the concentration needed to bring the measured effect to its halfway point. A higher EC50 goes with lower potency in that assay. Turning to `COc1c2c(n(C)c(=O)c1C)CN(C(=O)c1cnn(C(F)(F)F)c1)C2C` (racemic) [Compound I-82, 4-Methoxy-1,3,5-trimethyl-6-(1-(trifluoromethyl)-1H-pyrazole-4-carbonyl)-1,5,6,7-tetrahydro-2H-pyrrolo[3,4-b]pyridin-2-one], the EC50 lay within 100 to 500 nM on hM4 receptors, 500 to 2000 nM at rM4 receptors and 100 to 500 nM at human M4 receptor.
As to `COc1c2c(n(C)c(=O)c1Cl)CN(C(=O)c1cnn(C(F)(F)F)c1)C2C` (single isomer, unassigned) [Compound I-74], the half-maximal effective concentration (EC50) at hM4 receptors is under 100 nM; at rM4 receptors, 500 to 2000 nM; on human M4 receptor, 500 to 2000 nM.
`COc1c2c(n(C)c(=O)c1Cl)CN(C(=O)c1cnn(C(F)(F)F)c1)C2C` (single isomer, unassigned) [Compound I-75]: the EC50 at hM4 receptors, at rM4 receptors and at human M4 receptor was over 2000 nM throughout.
As for `COc1cc(=O)n(C)c2c1C(C)N(C(=O)c1cnn(C(F)(F)F)c1)C2` (single isomer, unassigned) [Compound I-80], the EC50 is 100 to 500 nM at hM4 receptors, over 2000 nM at rM4 receptors and over 2000 nM on human M4 receptor.
As for `Cc1cc(=O)n(C)c2c1CN(C(=O)c1cnn(C)c1)C2C` (single isomer, unassigned) [Compound I-106], the EC50 on hM4 receptors and on human M4 receptor was over 2000 nM each time.
Turning to `Cc1c2c(n(C)c(=O)c1Cl)CN(C(=O)c1cn(C)c(C)n1)C2` [Compound I-11], the 50% effective concentration (EC50) on hM4 receptors and on human M4 receptor was over 2000 nM in each case.
`Cc1c2c(n(C)c(=O)c1Cl)CN(C(=O)c1cncc(C(F)(F)F)c1)C2` [Compound I-48]: the EC50 at hM4 receptors and on human M4 receptor was over 2000 nM each time.
Regarding `Cc1c2c(n(CC3CC3)c(=O)c1Cl)CN(C(=O)c1cnc(CC3CC3)s1)C2` [Compound I-69, 3-Chloro-1-(cyclopropylmethyl)-6-(2-(cyclopropylmethyl)thiazole-5-carbonyl)-4-methyl-1,5,6,7-tetrahydro-2H-pyrrolo[3,4-b]pyridin-2-one], the EC50 at hM4 receptors is 100 to 500 nM; at rM4 receptors, over 2000 nM.
As for `Cc1c2c(n(CC3CC3)c(=O)c1Cl)CN(C(=O)c1ccc3nc(C4CCC4)sc3c1)C2` [Compound I-70], the 50% effective concentration (EC50) at hM4 receptors and on rM4 receptors was 100 to 500 nM each time.
Turning to `Cc1c2c(n(C)c(=O)c1Cl)CN(C(=O)c1cnn(C(F)F)c1)[C@@H]2C` [Compound I-77], the EC50 on hM4 receptors is under 100 nM; at rM4 receptors, 100 to 500 nM.
Regarding `Cc1c2c(n(C)c(=O)c1C)CN(C(=O)c1cnn(C(F)(F)F)c1)[C@@H]2C` [Compound I-78, (R)-1,3,4,5-Tetramethyl-6-(1-(trifluoromethyl)-1H-pyrazole-4-carbonyl)-1,5,6,7-tetrahydro-2H-pyrrolo[3,4-b]pyridin-2-one], the 50% effective concentration (EC50) on hM4 receptors is under 100 nM; at rM4 receptors it was 100 to 500 nM.
`COc1c2c(n(C)c(=O)c1C)CN(C(=O)c1cnn(CC(F)(F)F)c1)C2` [Compound I-85, 4-Methoxy-1,3-dimethyl-6-(1-(2,2,2-trifluoroethyl)-1H-pyrazole-4-carbonyl)-1,5,6,7-tetrahydro-2H-pyrrolo[3,4-b]pyridin-2-one]: the concentration for a half-maximal effect (EC50) on hM4 receptors is 500 to 2000 nM; on rM4 receptors, over 2000 nM.
Take `COc1c2c(n(C)c(=O)c1C)CN(C(=O)c1cnc(CC3CC3)s1)C2` [Compound I-86]: the EC50 at hM4 receptors was 100 to 500 nM; on rM4 receptors it was over 2000 nM.
In the case of `CCOc1c2c(n(C)c(=O)c1C)CN(C(=O)c1cnn(C(F)(F)F)c1)C2` [Compound I-88, 4-Ethoxy-1,3-dimethyl-6-(1-(trifluoromethyl)-1H-pyrazole-4-carbonyl)-1,5,6,7-tetrahydro-2H-pyrrolo[3,4-b]pyridin-2-one], the figures for the EC50 at hM4 receptors and at rM4 receptors were under 100 nM and over 2000 nM, respectively.
Consider `CSc1c2c(n(C)c(=O)c1C)CN(C(=O)c1cnc(CC3CC3)s1)C2` [Compound I-91], for which the EC50 was 100 to 500 nM on hM4 receptors and over 2000 nM on rM4 receptors.
Turning to `Cc1cc(=O)n(C)c2c1C(C)N(C(=O)c1cnn(C(F)(F)F)c1)C2` (centres unmarked) [Compound I-93], the EC50 at hM4 receptors was under 100 nM; on rM4 receptors, over 2000 nM.
Take `Cc1cc(=O)n(C)c2c1CN(C(=O)c1cnn(C)c1)C2C` (centres unmarked) [Compound I-105, 1,4,7-Trimethyl-6-(1-methyl-1H-pyrazole-4-carbonyl)-1,5,6,7-tetrahydro-2H-pyrrolo[3,4-b]pyridin-2-one]: the EC50 on hM4 receptors and at human M4 receptor was over 2000 nM throughout.
As for `Cc1c2c(n(C)c(=O)c1C(F)(F)F)CN(C(=O)c1cnn(C)c1)C2` [Compound I-110, 1,4-Dimethyl-6-(1-methyl-1H-pyrazole-4-carbonyl)-3-(trifluoromethyl)-1,5,6,7-tetrahydro-2H-pyrrolo[3,4-b]pyridin-2-one], the results for the EC50 at hM4 receptors and at rM4 receptors were 100 to 500 nM and over 2000 nM, respectively.
In the case of `Cc1c2c(n(C)c(=O)c1C)CN(C(=O)c1ccc3nc(C4CC4)sc3c1)C2` [Compound I-111, 6-(2-Cyclopropylbenzo[d]thiazole-6-carbonyl)-1,3,4-trimethyl-1,5,6,7-tetrahydro-2H-pyrrolo[3,4-b]pyridin-2-one], the EC50 on hM4 receptors was over 2000 nM; on rM4 receptors it was 100 to 500 nM.
For the compound `Cc1c2c(n(C)c(=O)c1F)CN(C(=O)c1cnn(C(F)(F)F)c1)[C@@H]2C` [Compound I-114, (R)-3-Fluoro-1,4,5-trimethyl-6-(1-(trifluoromethyl)-1H-pyrazole-4-carbonyl)-1,5,6,7-tetrahydro-2H-pyrrolo[3,4-b]pyridin-2-one], the EC50 is under 100 nM on hM4 receptors and 100 to 500 nM at rM4 receptors.
